Values of other authors in US20230041069A1, “ELECTROLYTE FOR ELECTROCHEMICAL GAS SENSOR AND ELECTROCHEMICAL GAS SENSOR INCLUDING THE SAME” (Samsung Electronics Co., Ltd., priority 2021, published 2023).

Which “pKa of an anion's conjugate acid” value does the source give for `CCn1cc[n+](C)c1.N#C[N-]C#N` [compound 6, 1-Ethyl-3-methylimidazolium dicyanamide] here?
The value was 5.
